Data published in US8324226B2, “Therapeutic oxy-phenyl-aryl compounds and their use” (Cancer Research Technology Limited, priority 2007, dated 2012).
Several values for one entry are separate records, joined by “and”; a condition that tells them apart may be missing. Equal entries are not always repeated. Where two headings read alike, the source gives them in different places.

Molecular target: T1, CHK2 (Homo sapiens, UniProt O96017)
T1 construct: made in house
Assay: CHK2 kinase activity assay (DELFIA, phosphorylation of a CDC25C peptide)
Assay type: biochemical
Details: ATP 30 μM, CHK2 1 nM, read-out: IC50, inhibition of CHK2 kinase activity in vitro

T1 sequence (O96017 whole entry): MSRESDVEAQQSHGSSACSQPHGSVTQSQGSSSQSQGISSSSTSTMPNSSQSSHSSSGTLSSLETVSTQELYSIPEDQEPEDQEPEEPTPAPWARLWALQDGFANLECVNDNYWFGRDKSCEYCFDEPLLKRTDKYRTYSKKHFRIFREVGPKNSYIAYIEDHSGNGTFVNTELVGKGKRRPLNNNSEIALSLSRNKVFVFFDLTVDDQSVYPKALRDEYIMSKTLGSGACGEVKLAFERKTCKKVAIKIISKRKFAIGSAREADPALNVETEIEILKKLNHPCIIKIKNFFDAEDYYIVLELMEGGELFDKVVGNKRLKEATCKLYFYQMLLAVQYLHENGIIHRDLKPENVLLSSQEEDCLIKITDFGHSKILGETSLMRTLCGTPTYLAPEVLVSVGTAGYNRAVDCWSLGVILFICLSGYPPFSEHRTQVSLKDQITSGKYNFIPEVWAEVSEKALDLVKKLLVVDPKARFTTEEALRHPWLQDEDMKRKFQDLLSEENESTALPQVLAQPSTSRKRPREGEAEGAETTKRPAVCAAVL

IC50 (first set of tested compounds) [µM]	IC50 (following further studies)	SMILES
< 3	≤ 0.3 µM	CC(C)N(C)C(=O)[C@H]1C[C@H](Nc2nc(-c3ccccc3O)nc3ccccc23)CN1 [Compound A-048, (2R,4S)-4-(2-(2-Hydroxyphenyl)quinazolin-4-ylamino)-N-isopropyl-N-methylpyrrolidine-2-carboxamide]
< 3	0.3 to 3 µM	O=C([C@H]1C[C@H](Nc2nc(-c3ccccc3O)nc3ccccc23)CN1)N1CCC1 [Compound A-049, Azetidin-1-yl((2R,4S)-4-(2-(2-hydroxyphenyl)quinazolin-4-ylamino)pyrrolidin-2-yl)methanone]
< 3	≤ 0.3 µM	CCN(C)C(=O)[C@H]1C[C@H](Nc2nc(-c3ccccc3O)nc3ccccc23)CN1 [Compound A-050, (2R,4S)-N-Ethyl-4-(2-(2-hydroxyphenyl)quinazolin-4-ylamino)-N-methylpyrrolidine-2-carboxamide]
< 3	0.3 to 3 µM	CCNC(=O)[C@H]1C[C@H](Nc2nc(-c3ccccc3O)nc3ccccc23)CN1 [Compound A-051, (2R,4S)-N-Ethyl-4-(2-(2-hydroxyphenyl)quinazolin-4-ylamino)pyrrolidine-2-carboxamide]
< 3	≤ 0.3 µM	OCC#Cc1ccc2nc(-c3ccccc3O)nc(N[C@H]3CCNC3)c2c1 [Compound A-052, (S)-2-(6-(3-hydroxyprop-1-ynyl)-4-(pyrrolidin-3-ylamino)quinazolin-2-yl)phenol]
< 3	≤ 0.3 µM	OCC#Cc1ccc2c(N[C@H]3CCNC3)nc(-c3ccccc3O)nc2c1 [Compound A-054, (S)-2-(7-(3-Hydroxyprop-1-ynyl)-4-(pyrrolidin-3-ylamino)quinazolin-2-yl)phenol]
	≤ 0.3 µM	Oc1ccc(Cl)cc1-c1nc(NC2CCCNCC2)c2ccccc2n1 (centres unmarked) [Compound A-057, 2-(4-(Azepan-4-ylamino)quinazolin-2-yl)-4-chlorophenol]
	≤ 0.3 µM	Oc1ccc(Cl)cc1-c1nc(NC2CCCCNC2)c2ccccc2n1 (centres unmarked) [Compound A-058, 2-(4-(Azepan-3-ylamino)quinazolin-2-yl)-4-chlorophenol]
	≤ 0.3 µM	Oc1ccc(F)cc1-c1nc(NC2CCCCNC2)c2ccccc2n1 (centres unmarked) [Compound A-059, 2-(4-(Azepan-3-ylamino)quinazolin-2-yl)-4-fluorophenol]
	≤ 0.3 µM	Oc1ccc(F)cc1-c1nc(NC2CCCNCC2)c2ccccc2n1 (centres unmarked) [Compound A-060, 2-(4-(Azepan-4-ylamino)quinazolin-2-yl)-4-fluorophenol]
	≤ 0.3 µM	CN(C)C(=O)[C@H]1C[C@H](Nc2nc(-c3cc(F)ccc3O)nc3cc(CCCO)ccc23)CN1 [Compound A-061, (2R,4S)-4-(2-(5-Fluoro-2-hydroxyphenyl)-7-(3-hydroxypropyl)quinazolin-4-ylamino)-N,N-dimethylpyrrolidine-2-carboxamide]
	≤ 0.3 µM	Oc1ccccc1-c1nc(N[C@H]2CCNC2)c2ccc(Cl)cc2n1 [Compound A-062, (S)-2-(7-Chloro-4-(pyrrolidin-3-ylamino)quinazolin-2-yl)phenol]
	3 to 30 µM	O=C(O)C1(Nc2nc(-c3cc(Cl)ccc3O)nc3ccccc23)CCNC1 (centres unmarked) [Compound A-064, 3-(2-(5-Chloro-2-hydroxyphenyl)quinazolin-4-ylamino)pyrrolidine-3-carboxylic acid]
	≤ 0.3 µM	Oc1ccccc1-c1nc(N[C@H]2CCNC2)c2ccc(-c3cn[nH]c3)cc2n1 [Compound A-065, (S)-2-(7-(1H-Pyrazol-4-yl)-4-(pyrrolidin-3-ylamino)quinazolin-2-yl)phenol]
	≤ 0.3 µM	Cn1cc(-c2ccc3c(N[C@H]4CCNC4)nc(-c4ccccc4O)nc3c2)cn1 [Compound A-066, (S)-2-(7-(1-Methyl-1H-pyrazol-4-yl)-4-(pyrrolidin-3-ylamino)quinazolin-2-yl)phenol]
	≤ 0.3 µM	Oc1ccc(F)cc1-c1nc(N[C@H]2CCNC2)c2ccc(-c3cn[nH]c3)cc2n1 [Compound A-068, (S)-2-(7-(1H-Pyrazol-4-yl)-4-(pyrrolidin-3-ylamino)quinazolin-2-yl)-4-fluorophenol]
	≤ 0.3 µM	OCCCc1ccc2c(N[C@H]3CCNC3)nc(-c3cc(F)ccc3O)nc2c1 [Compound A-071, (S)-4-Fluoro-2-(7-(3-hydroxypropyl)-4-(pyrrolidin-3-ylamino)quinazolin-2-yl)phenol]
	≤ 0.3 µM	OCC#Cc1ccc2c(N[C@H]3CCNC3)nc(-c3cc(F)ccc3O)nc2c1 [Compound A-072, (S)-4-Fluoro-2-(7-(3-hydroxyprop-1-ynyl)-4-(pyrrolidin-3-ylamino)quinazolin-2-yl)phenol]
	≤ 0.3 µM	COc1ccc2nc(-c3cc(F)ccc3O)nc(N[C@H]3CCNC3)c2c1 [Compound A-073, (S)-4-Fluoro-2-(6-methoxy-4-(pyrrolidin-3-ylamino)quinazolin-2-yl)phenol]
	≤ 0.3 µM	COc1ccc2c(N[C@H]3CCNC3)nc(-c3cc(F)ccc3O)nc2c1 [Compound A-074, (S)-4-Fluoro-2-(7-methoxy-4-(pyrrolidin-3-ylamino)quinazolin-2-yl)phenol]

IC50 (first set of tested compounds) [µM]	IC50 (following further studies)	SMILES
	≤ 0.3 µM	COC/C=C/c1ccc2c(N[C@H]3CCNC3)nc(-c3ccccc3O)nc2c1 [Compound A-078, (S,E)-2-(7-(3-Methoxyprop-1-enyl)-4-(pyrrolidin-3-ylamino)quinazolin-2-yl)phenol]
	≤ 0.3 µM	COCCCc1ccc2c(N[C@H]3CCNC3)nc(-c3ccccc3O)nc2c1 [Compound A-079, (S)-2-(7-(3-Methoxypropyl)-4-(pyrrolidin-3-ylamino)quinazolin-2-yl)phenol]
	≤ 0.3 µM	COc1ccc2c(N[C@@H]3CN[C@@H](CO)C3)nc(-c3cc(F)ccc3O)nc2c1 [Compound A-087, 4-Fluoro-2-(4-((3S,5R)-5-(hydroxymethyl)pyrrolidin-3-ylamino)-7-methoxyquinazolin-2-yl)phenol]
	≤ 0.3 µM	CC(C)(O)C#Cc1ccc2c(N[C@H]3CCNC3)nc(-c3cc(F)ccc3O)nc2c1 [Compound A-093, (S)-4-Fluoro-2-(7-(3-hydroxy-3-methylbut-1-ynyl)-4-(pyrrolidin-3-ylamino)quinazolin-2-yl)phenol]
	≤ 0.3 µM	COCCOc1ccc2nc(-c3cc(F)ccc3O)nc(N[C@H]3CCNC3)c2c1 [Compound A-095, (S)-4-Fluoro-2-(6-(2-methoxyethoxy)-4-(pyrrolidin-3-ylamino)quinazolin-2-yl)phenol]
	≤ 0.3 µM	CC(C)(O)CCc1ccc2c(N[C@H]3CCNC3)nc(-c3cc(F)ccc3O)nc2c1 [Compound A-097, (S)-4-Fluoro-2-(7-(3-hydroxy-3-methylbutyl)-4-(pyrrolidin-3-ylamino)quinazolin-2-yl)phenol]
	3 to 30 µM	Oc1ccc(-c2ccc(F)cc2)cc1-c1nc(N[C@H]2CCNC2)c2ccccc2n1 [Compound A-100, (S)-4′-Fluoro-3-(4-(pyrrolidin-3-ylamino)quinazolin-2-yl)biphenyl-4-ol]
	3 to 30 µM	NC(=O)c1ccc(-c2ccc(O)c(-c3nc(N[C@H]4CCNC4)c4ccccc4n3)c2)cc1 [Compound A-101, (S)-4′-Hydroxy-3′-(4-(pyrrolidin-3-ylamino)quinazolin-2-yl)biphenyl-4-carboxamide]
	≤ 0.3 µM	CC(C)(O)CCc1ccc2nc(-c3cc(F)ccc3O)nc(N[C@H]3CCNC3)c2c1 [Compound A-102, (S)-4-Fluoro-2-(6-(3-hydroxy-3-methylbutyl)-4-(pyrrolidin-3-ylamino)quinazolin-2-yl)phenol]
	≤ 0.3 µM	COCCOc1cc2c(N[C@H]3CCNC3)nc(-c3cc(F)ccc3O)nc2cc1OC [Compound A-103, (S)-4-Fluoro-2-(7-methoxy-6-(2-methoxyethoxy)-4-(pyrrolidin-3-ylamino)quinazolin-2-yl)phenol]
	≤ 0.3 µM	COCCOc1cc2nc(-c3cc(F)ccc3O)nc(N[C@H]3CCNC3)c2cc1OCCOC [Compound A-104, (S)-2-(6,7-bis(2-Methoxyethoxy)-4-(pyrrolidin-3-ylamino)quinazolin-2-yl)-4-fluorophenol]
	0.3 to 3 µM	Oc1ccc(-c2cccc(F)c2)cc1-c1nc(N[C@H]2CCNC2)c2ccccc2n1 [Compound A-107, (S)-3′-Fluoro-3-(4-(pyrrolidin-3-ylamino)quinazolin-2-yl)biphenyl-4-ol]
	0.3 to 3 µM	Oc1ccc(-c2ccsc2)cc1-c1nc(N[C@H]2CCNC2)c2ccccc2n1 [Compound A-108, (S)-2-(4-(Pyrrolidin-3-ylamino)quinazolin-2-yl)-4-(thiophen-3-yl)phenol]
	0.3 to 3 µM	CC(C)(O)C#Cc1ccc2nc(-c3cc(F)ccc3O)nc(N[C@H]3CCNC3)c2c1 [Compound A-109, (S)-4-Fluoro-2-(6-(3-hydroxy-3-methylbut-1-ynyl)-4-(pyrrolidin-3-ylamino)quinazolin-2-yl)phenol]
	≤ 0.3 µM	Nc1nnc(-c2ccc(O)c(-c3nc(N[C@H]4CCNC4)c4ccccc4n3)c2)s1 [Compound A-110, (S)-4-(5-Amino-1,3,4-thiadiazol-2-yl)-2-(4-(pyrrolidin-3-ylamino)quinazolin-2-yl)phenol]
	≤ 0.3 µM	Oc1ccc(F)cc1-c1nc(N[C@H]2CCNC2)c2ccc(F)cc2n1 [Compound A-114, (S)-4-Fluoro-2-(7-fluoro-4-(pyrrolidin-3-ylamino)quinazolin-2-yl)phenol]
3 to 30	3 to 30 µM	NC1CCC(Nc2nc(-c3ccccc3O)nc3ccccc23)CC1 (centres unmarked) [Compound B-001, 2-[4-(4-Aminocyclohexylamino)-quinazolin-2-yl]-phenol]
< 3	0.3 to 3 µM	NC1CCCC(Nc2nc(-c3ccccc3O)nc3ccccc23)C1 (centres unmarked) [Compound B-004, 2-[4-(3-Aminocyclohexylamino)-quinazolin-2-yl]-phenol]
3 to 30	3 to 30 µM and 4.4 µM	Oc1ccccc1-c1cc(N[C@H]2CCNC2)c2ccccc2n1 [Compound C-001, (S)-2-(4-(Pyrrolidin-3-ylamino)quinolin-2-yl)phenol]
3 to 30	3 to 30 µM and 8.2 µM	Oc1ccccc1-c1nccc(N[C@H]2CCNC2)n1 [Compound D-002]
